The record followed here is ChEMBL document CHEMBL1122998, “New antihistaminic theophylline or theobromine derivatives” (1985).

Test [1] relates to Cavia porcellus. Briefly: Percentage decrease in bronchodilator activity against serotonin-induced bronchospasm reaction in guinea pig by intraveneous administration at dose 250 ug/kg. The format is functional.
Test [2] has as its system Cavia porcellus. Nature of the test: Percent decrease in bronchodilator activity against acetylcholine-induced bronchospasm reaction in guinea pig by intraveneous administration at dose 250 ug/kg. The format is functional.
The subject of test [3] is Rattus norvegicus. Briefly: Percent decrease in antiallergic activity by antigen/antibody reaction assay in rat by oral administration at a dose of 10 mg/kg. Type of test: functional.
The test system of test [4] is Rattus norvegicus. Briefly: Percentage decrease in antiallergic activity against cutaneous reaction to histamine in rat, by oral administration at a dose of 10 mg/kg. Type of test: functional.
Test [5] deals with Cavia porcellus. Briefly: Percent decrease in bronchodilator activity against histamine-induced bronchospasm reaction in guinea pig by intraveneous administration at dose 10.5 ug/kg.
For test [6], the system named is Rattus norvegicus. Briefly: Percent protection against Passive Cutaneous Anaphylaxis in rat after 2.0 hr at dose 100 mg/kg by peroral administration through exogenous histamine reaction. The conditions noted are these: route oral. The format is functional.
The test system of test [7] is Rattus norvegicus. Briefly: Percent protection against Passive Cutaneous Anaphylaxis in rat after 4.0h at dose 100 mg/kg by peroral administration through antigen or antibody reaction. The conditions noted are these: route oral. The format is functional.
Test [8] has as its system Rattus norvegicus. Briefly: Percent protection against Passive Cutaneous Anaphylaxis in rat after 1.0 hr at dose 100 mg/kg by peroral administration through antigen or antibody reaction. The conditions noted are these: route oral. The format is functional.
Test [9] concerns Rattus norvegicus. Nature of the test: Percent protection against Passive Cutaneous Anaphylaxis in rat after 3.0 hh at dose 100 mg/kg by peroral administration through antigen or antibody reaction. The format is functional. The note with it: route oral.
In test [10] the test system is Rattus norvegicus. Nature of the test: Percent protection against Passive Cutaneous Anaphylaxis in rat after 4.0h at dose 100 mg/kg by peroral administration through exogenous histamine reaction. The format is functional. The note with it: route oral.
Test [11] deals with Rattus norvegicus. Nature of the test: Percent protection against Passive Cutaneous Anaphylaxis in rat after 3.0 hh at dose 100 mg/kg by peroral administration through exogenous histamine reaction. Type of test: functional. The note with it: route oral.
For test [12], the system named is Rattus norvegicus. Nature of the test: Percent protection against Passive Cutaneous Anaphylaxis in rat after 2.0 hr at dose 100 mg/kg by peroral administration through antigen or antibody reaction. The conditions noted are these: route oral. Type of test: functional.
Test [13] has as its system Rattus norvegicus. Nature of the test: Percent protection against Passive Cutaneous Anaphylaxis in rat after 0.25 hr at dose 100 mg/kg by peroral administration through exogenous histamine reaction. The note with it: route oral. The format is functional.
In test [14] the test system is Rattus norvegicus. Nature of the test: Percent protection against Passive Cutaneous Anaphylaxis in rat after 1.0 hr at dose 100 mg/kg by peroral administration through exogenous histamine reaction. Type of test: functional. The conditions noted are these: route oral.
The test system of test [15] is Rattus norvegicus. Nature of the test: Percent protection against Passive Cutaneous Anaphylaxis in rat after 0.25 hr at dose 100 mg/kg by peroral administration through antigen or antibody reaction. Type of test: functional. The conditions noted are these: route oral.
For test [16], the system named is Cavia porcellus. Nature of the test: Percent decrease in bronchodilator activity against histamine-induced bronchospasm reaction in guinea pig by intraveneous administration at dose 250 ug/kg. The format is functional.
Test [17] relates to Cavia porcellus. Briefly: Percent decrease in bronchodilator activity against histamine-induced bronchospasm reaction in guinea pig by intraveneous administration at dose 4 mg/kg.

The structures appear in SMILES notation.

Turning to `Cn1c(=O)c2c(ncn2CCCN2CCN(CCCCSc3ccc(Cl)cc3)CC2)n(C)c1=O`, the Decrease is 23% with Cavia porcellus [1]; 26% in the test on Cavia porcellus [2]; 0% in the test with Rattus norvegicus [3]; 0% in the test with Rattus norvegicus [4]; 3% in the test with Cavia porcellus [5].

Regarding `Cn1c(=O)c2c(ncn2CC(=O)N2CCN(CCCSc3ccccc3)CC2)n(C)c1=O`, the Decrease in the test with Cavia porcellus [1] is 21%; with Cavia porcellus [2], 16%; in the test with Rattus norvegicus [3], 15%; in the test with Rattus norvegicus [4] it was 10%; with Cavia porcellus [5], 31%.

In the case of `Cn1c(=O)c2c(ncn2CCN2CCN(CCCSc3ccccc3)CC2)n(C)c1=O`, the Decrease in the test on Cavia porcellus [1] is given as 48%; in the test on Cavia porcellus [2], 0%; with Rattus norvegicus [3], 28%; in the test on Rattus norvegicus [4], 21%; in the test on Cavia porcellus [5] it was 0%.

For `Cc1ccc(SCCCN2CCN(CCCn3c(=O)c4c(ncn4C)n(C)c3=O)CC2)cc1`, the Decrease amounted to 6% with Cavia porcellus [1]; 24% with Cavia porcellus [2]; 0% in the test with Rattus norvegicus [3]; 6.5% with Rattus norvegicus [4]; 13% in the test on Cavia porcellus [5].

For the molecule `Cn1c(=O)c2c(ncn2CCCN2CCN(CCCSc3ccccc3)CC2)n(C)c1=O`, the Protection in the test on Rattus norvegicus [6] was found to be 28%; with Rattus norvegicus [7] it was 0%; in the test on Rattus norvegicus [8], 45%; in the test on Rattus norvegicus [9], 0%; in the test with Rattus norvegicus [10], 0%; in the test on Rattus norvegicus [11] it was 0%. Further, the Protection in the test with Rattus norvegicus [12] is 45%; with Rattus norvegicus [13], 46%; in the test on Rattus norvegicus [14], 23%; in the test on Rattus norvegicus [15] it was 98%. Besides, the Decrease in the test with Cavia porcellus [1] turned out to be 69%; with Cavia porcellus [2], 23%; in the test with Rattus norvegicus [3], 60%; in the test on Rattus norvegicus [4], 62%; in the test on Cavia porcellus [5], 95%.

Consider `CC(=O)OC(CN1CCN(CCCSc2ccccc2)CC1)Cn1cnc2c1c(=O)n(C)c(=O)n2C` (stereo not given), for which the Decrease with Cavia porcellus [1] amounted to 29%; with Cavia porcellus [2], 17%; with Rattus norvegicus [3], 54%; with Rattus norvegicus [4], 62%; in the test with Cavia porcellus [16] it was 50%.

For `Cc1ccc(SCCCN2CCN(CC(O)Cn3cnc4c3c(=O)n(C)c(=O)n4C)CC2)cc1` (stereo not given), the Decrease in the test with Cavia porcellus [1] is reported as 0%; with Cavia porcellus [2] it was 0%; in the test with Rattus norvegicus [3] it was 19%; with Rattus norvegicus [4], 24%; in the test on Cavia porcellus [5] it was 5%.

On to `Cn1c(=O)c2c(ncn2CN2CCN(CCCSc3ccccc3)CC2)n(C)c1=O`, for which the Decrease stood at 0% with Cavia porcellus [1]; 0% in the test with Cavia porcellus [2]; 0% in the test on Rattus norvegicus [3]; 0% with Rattus norvegicus [4]; 9% with Cavia porcellus [5].

On to `Cc1cc(OCCCN2CCN(CC(O)Cn3c(=O)c4c(ncn4C)n(C)c3=O)CC2)cc(C)c1Cl` (stereo not given), for which the Decrease stood at 53% with Cavia porcellus [1]; 0% in the test on Cavia porcellus [2]; 8% in the test on Rattus norvegicus [3]; 8% in the test on Rattus norvegicus [4]; 2% in the test on Cavia porcellus [5].

For the molecule `Cn1c(=O)c2c(ncn2CC(O)CN2CCN(CCCOc3ccc(Cl)cc3)CC2)n(C)c1=O` (stereo not given), the Decrease is listed as 0% with Cavia porcellus [1]; 0% with Cavia porcellus [2]; 22% in the test with Rattus norvegicus [3]; 44% in the test with Rattus norvegicus [4]; 19% with Cavia porcellus [5].

Regarding `Cn1cnc2c1c(=O)n(CCCN1CCN(CCCOc3ccccc3)CC1)c(=O)n2C`, the Decrease with Cavia porcellus [1] is 47%; with Cavia porcellus [2] it was 30%; in the test on Rattus norvegicus [3], 23%; in the test on Rattus norvegicus [4], 0%; in the test with Cavia porcellus [5], 28%.

In the case of `Cn1c(=O)c2c(ncn2CCCN2CCN(CC(O)CSc3ccccc3)CC2)n(C)c1=O` (stereo not given), the Decrease turned out to be 0% with Cavia porcellus [1]; 0% with Cavia porcellus [2]; 0% in the test with Rattus norvegicus [3]; 0% with Rattus norvegicus [4]; 88% in the test on Cavia porcellus [5].

On to `Cn1c(=O)c2c(ncn2CC(O)CN2CCN(CCCSc3ccc(Cl)cc3)CC2)n(C)c1=O` (stereo not given), for which the Decrease in the test on Cavia porcellus [1] was 0%; in the test with Cavia porcellus [2] it was 0%; in the test on Rattus norvegicus [3] it was 35%; in the test with Rattus norvegicus [4], 67%; in the test on Cavia porcellus [5] it was 24%.

Regarding `Cn1c(=O)c2c(ncn2C/C=C/CN2CCN(CCCSc3ccccc3)CC2)n(C)c1=O`, the Decrease in the test with Cavia porcellus [1] came out at 20%; with Cavia porcellus [2], 0%; in the test on Rattus norvegicus [3], 8%; with Rattus norvegicus [4] it was 4%; in the test with Cavia porcellus [5], 8%.

Take `CC(CN1c2ccccc2Sc2ccccc21)N(C)C` (stereo not given) [PROMETHAZINE]: the Decrease in the test with Cavia porcellus [1] was found to be 0%; with Cavia porcellus [2], 0%; in the test with Rattus norvegicus [3], 30%; in the test with Rattus norvegicus [4] it was 58%; in the test with Cavia porcellus [5], 40%.

Regarding `Cn1c(=O)c2c(ncn2CC(O)CN2CCN(CCCSc3ccccc3)CC2)n(C)c1=O` (stereo not given) [TAZIFYLLINE], the Protection in the test on Rattus norvegicus [6] came to 33%; in the test with Rattus norvegicus [7], 44%; with Rattus norvegicus [8] it was 98%; with Rattus norvegicus [9], 74%; with Rattus norvegicus [10] it was 39%; in the test on Rattus norvegicus [11], 52%. Further, the Protection was 82% in the test on Rattus norvegicus [12], 52% with Rattus norvegicus [13], 49% with Rattus norvegicus [14] and 100% in the test on Rattus norvegicus [15]. Besides, the Decrease in the test on Cavia porcellus [1] worked out at 26%; with Cavia porcellus [2] it was 23%; with Rattus norvegicus [3], 54%; in the test with Rattus norvegicus [4], 65%; in the test on Cavia porcellus [5], 76%.

Turning to `Cn1c(=O)c2nc[nH]c2n(C)c1=O.O` [THEOPHYLLINE], the Decrease in the test on Cavia porcellus [1] was 59%; in the test on Cavia porcellus [2] it was 72%; with Rattus norvegicus [3], 45%; in the test on Rattus norvegicus [4], 15%; in the test with Cavia porcellus [17], 56%.
